Assay results as given in PMC4182091, “A Common Minimal Motif for the Ligands of HLA-B*27 Class I Molecules” (PLoS ONE, 2014).
Where two headings read alike, the source gives them in different places. Ends that are not written are not given here.

Experiments:
Assay type in all cases: cell-based
HLA-B*2706 = molecular target: T1, HLA-B*2706 (Homo sapiens, UniProt P01889, A235G/D201E/E204Q/G107R/H137Y/K202T/N104T/N87E/Q56L/Q94K/R106L/R155S/R180L/S121N/S48T/Y33H/Y91C); assay: HLA/peptide complex stability assay, RMA-S cells transfected with HLA-B*2706; details: for fluorescence index, B*2706: peptide 200 µM, mean ± S.D. of three to five independent experiments
T1 construct: expressed in transfected cells; host or cells: RMA-S (TAP-deficient murine cell line)

HLA-B*2701 = molecular target: T2, HLA-B*2701 (Homo sapiens, UniProt P01889, D138H/D201E/D98Y/E176V/E204Q/G107R/H137Y/K202T/L105A/N104T/N87E/Q56L/Q94K/R106L/R155S/R180L/S101N/S121N/S48T/Y140D/Y33H/Y91C); assay: HLA/peptide complex stability assay, RMA-S cells transfected with HLA-B*2701; details: for fluorescence index, B*2701: peptide 200 µM, mean ± S.D. of three to five independent experiments
T2 construct: expressed in transfected cells; host or cells: RMA-S (TAP-deficient murine cell line)

HLA-B*2704 = HLA-B*2704 (Homo sapiens, UniProt P01889, A235G/D138H/D201E/E204Q/G107R/H137Y/K202T/N104T/N87E/Q56L/Q94K/R106L/R155S/R180L/S121N/S48T/Y140D/Y33H/Y91C); assay: HLA/peptide complex stability assay, RMA-S cells transfected with HLA-B*2704; details: for fluorescence index, B*2704: peptide 200 µM, mean ± S.D. of three to five independent experiments
HLA-B*2703 = molecular target: T3, HLA-B*2703 (Homo sapiens, UniProt P01889, D138H/D201E/E176V/E204Q/G107R/H137Y/K202T/N104T/N87E/Q56L/Q94K/R106L/R155S/R180L/S101D/S121N/S48T/Y140D/Y33H/Y83H/Y91C); assay: HLA/peptide complex stability assay, RMA-S cells transfected with HLA-B*2703; details: for fluorescence index, B*2703: peptide 200 µM, mean ± S.D. of three to five independent experiments
T3 construct: expressed in transfected cells; host or cells: RMA-S (TAP-deficient murine cell line)

HLA-B*2705 = molecular target: T4, HLA-B*2705 (Homo sapiens, UniProt P01889, D138H/D201E/E176V/E204Q/G107R/H137Y/K202T/N104T/N87E/Q56L/Q94K/R106L/R155S/R180L/S101D/S121N/S48T/Y140D/Y33H/Y91C); assay: HLA/peptide complex stability assay, RMA-S cells transfected with HLA-B*2705; details: for fluorescence index, B*2705: peptide 200 µM, mean ± S.D. of three to five independent experiments
T4 construct: expressed in transfected cells; host or cells: RMA-S (TAP-deficient murine cell line)

HLA-B*2702 = HLA-B*2702 (Homo sapiens, UniProt P01889, D138H/D201E/E176V/E204Q/G107R/H137Y/K202T/L105A/N104I/N87E/Q56L/Q94K/R106L/R155S/R180L/S101N/S121N/S48T/Y140D/Y33H/Y91C); assay: HLA/peptide complex stability assay, RMA-S cells transfected with HLA-B*2702; details: for fluorescence index, B*2702: peptide 200 µM, mean ± S.D. of three to five independent experiments
HLA-B*2709 = molecular target: T5, HLA-B*2709 (Homo sapiens, UniProt P01889, D138H/D201E/E176V/E204Q/G107R/H137Y/K202T/N104T/N87E/Q56L/Q94K/R106L/R155S/R180L/S101D/S121N/S48T/Y140H/Y33H/Y91C); assay: HLA/peptide complex stability assay, RMA-S cells transfected with HLA-B*2709; details: for fluorescence index, B*2709: peptide 200 µM, mean ± S.D. of three to five independent experiments
T5 construct: expressed in transfected cells; host or cells: RMA-S (TAP-deficient murine cell line)

[1] = relative affinity (EC50 class), B*2706
[2] = relative affinity (EC50 class), B*2701
[3] = relative affinity (EC50 class), B*2704
[4] = relative affinity (EC50 class), B*2703
[5] = relative affinity (EC50 class), B*2702
[6] = relative affinity (EC50 class), B*2709
[7] = Table 1, transfected RMA-S cells, 2 h 26°C then 2 h 37°C, ME1 mAb, flow cytometry, ratio to control without peptide, SD
[8] = Table 4, monosubstituted Ala analogs, transfected RMA-S cells, flow cytometry, SD
[9] = relative affinity (EC50 class), B*2705

## KRYKGLLPKDI [NP 195-205]
HLA-B*2706; EC50, B*2706, SD
  EC50: 1 ± 1 µM
HLA-B*2701; EC50, B*2701, SD
  EC50: 8 ± 1 µM
HLA-B*2704; EC50, B*2704, SD
  EC50: 16 ± 3 µM
HLA-B*2703; EC50, B*2703, SD
  EC50: 20 ± 11 µM
HLA-B*2705
  relative MHC class I affinity according to the EC50 value, in words (high, medium, low): high
HLA-B*2705; EC50, B*2705, SD
  EC50: 7 ± 5 µM
HLA-B*2702; EC50, B*2702, SD
  EC50: 9 ± 1 µM
HLA-B*2709; EC50, B*2709, SD
  EC50: 7 ± 2 µM

## KRLPADVLKK [M2 150-159]
HLA-B*2706; EC50, B*2706
  EC50: > 200 µM
HLA-B*2706; [1]
  EC50: > 200 µM
HLA-B*2701; read-out: EC50, B*2701
  EC50: > 200 µM
HLA-B*2701; [2]
  EC50: > 200 µM
HLA-B*2704; EC50, B*2704, SD
  EC50: 73 ± 9 µM
HLA-B*2704; [3]
  EC50: 61 to 200 µM
HLA-B*2703; EC50, B*2703, SD
  EC50: 78 ± 10 µM
HLA-B*2703; [4]
  EC50: 61 to 200 µM
HLA-B*2705
  relative MHC class I affinity according to the EC50 value, in words (high, medium, low): high
HLA-B*2705; EC50, B*2705, SD
  EC50: 18 ± 3 µM
HLA-B*2702; EC50, B*2702, SD
  EC50: 136 ± 63 µM
HLA-B*2702; [5]
  EC50: 61 to 200 µM
HLA-B*2709; EC50, B*2709, SD
  EC50: 22 ± 9 µM
HLA-B*2709; [6]
  EC50: 20 to 60 µM

## SRSALLAQM [M 76-84]
HLA-B*2706; EC50, B*2706, SD
  EC50: 1 ± 1 µM
HLA-B*2701; EC50, B*2701, SD
  EC50: 15 ± 11 µM
HLA-B*2704; EC50, B*2704, SD
  EC50: 15 ± 6 µM
HLA-B*2703; EC50, B*2703, SD
  EC50: 6 ± 3 µM
HLA-B*2705
  relative MHC class I affinity according to the EC50 value, in words (high, medium, low): high
HLA-B*2705; EC50, B*2705, SD
  EC50: 5 ± 5 µM
HLA-B*2702; EC50, B*2702
  EC50: > 200 µM
HLA-B*2702; [5]
  EC50: > 200 µM
HLA-B*2709; EC50, B*2709, SD
  EC50: 6 ± 2 µM

## VAFTSHEHF [CMV pp65, reference compound]
HLA-B*2706; [7]
  fluorescence index, B*2706: 1.0±0.1
HLA-B*2706; [8]
  fluorescence index, B*2706: 1.0±0.1
HLA-B*2701; [7]
  fluorescence index, B*2701: 1.0±0.1
HLA-B*2701; [8]
  fluorescence index, B*2701: 1.0±0.1
HLA-B*2704; [7]
  fluorescence index, B*2704: 1.0±0.1
HLA-B*2704; [8]
  fluorescence index, B*2704: 1.0±0.1
HLA-B*2703; [7]
  fluorescence index, B*2703: 1.0±0.1
HLA-B*2703; [8]
  fluorescence index, B*2703: 1.0±0.1
HLA-B*2705; [7]
  fluorescence index, B*2705: 1.0±0.1
HLA-B*2705; [8]
  fluorescence index, B*2705: 1.0±0.1
HLA-B*2702; [7]
  fluorescence index, B*2702: 1.0±0.1
HLA-B*2702; [8]
  fluorescence index, B*2702: 1.0±0.1
HLA-B*2709; [7]
  fluorescence index, B*2709: 1.1±0.1
HLA-B*2709; [8]
  fluorescence index, B*2709: 1.1±0.1

## VRNKDLNTL [M 169-177]
HLA-B*2706; EC50, B*2706, SD
  EC50: 3 ± 1 µM
HLA-B*2701; EC50, B*2701
  EC50: > 200 µM
HLA-B*2701; [2]
  EC50: > 200 µM
HLA-B*2704; EC50, B*2704, SD
  EC50: 56 ± 16 µM
HLA-B*2704; [3]
  EC50: 20 to 60 µM
HLA-B*2703; EC50, B*2703
  EC50: > 200 µM
HLA-B*2703; [4]
  EC50: > 200 µM
HLA-B*2705
  relative MHC class I affinity according to the EC50 value, in words (high, medium, low): low affinity
HLA-B*2705; read-out: EC50, B*2705, SD
  EC50: 82 ± 20 µM
HLA-B*2705; [9]
  EC50: 61 to 200 µM
HLA-B*2702; EC50, B*2702, SD
  EC50: 94 ± 25 µM
HLA-B*2702; [5]
  EC50: 61 to 200 µM
HLA-B*2709; EC50, B*2709, SD
  EC50: 19 ± 7 µM

## RRANNVLKNEA [A11-NP 184-194, monosubstituted Ala analog of HRSV NP 184-194, […]]
HLA-B*2706; […], SD
  fluorescence index, B*2706: 2.7±0.2
HLA-B*2701; […], SD
  fluorescence index, B*2701: 1.1±0.1
HLA-B*2704; […], SD
  fluorescence index, B*2704: 2.0±0.2
HLA-B*2703; […], SD
  fluorescence index, B*2703: 1.7±0.2
HLA-B*2705; […], SD
  fluorescence index, B*2705: 2.1±0.1
HLA-B*2702; […], SD
  fluorescence index, B*2702: 1.7±0.1
HLA-B*2709; […], SD
  fluorescence index, B*2709: 1.8±0.1

## ARANNVLKNEM [A1-NP 184-194, monosubstituted Ala analog of HRSV NP 184-194, […]]
HLA-B*2706; […], SD
  fluorescence index, B*2706: 3.0±0.3
HLA-B*2701; […], SD
  fluorescence index, B*2701: 2.0±0.1
HLA-B*2704; […], SD
  fluorescence index, B*2704: 2.2±0.2
HLA-B*2703; […], SD
  fluorescence index, B*2703: 1.4±0.1
HLA-B*2705; […], SD
  fluorescence index, B*2705: 2.4±0.3
HLA-B*2702; […], SD
  fluorescence index, B*2702: 2.0±0.3
HLA-B*2709; […], SD
  fluorescence index, B*2709: 1.8±0.1

## GRNEVFSNK [L 2089-2097]
HLA-B*2706; EC50, B*2706
  EC50: > 200 µM
HLA-B*2706; [1]
  EC50: > 200 µM
HLA-B*2701; read-out: EC50, B*2701
  EC50: > 200 µM
HLA-B*2701; [2]
  EC50: > 200 µM
HLA-B*2704; EC50, B*2704, SD
  EC50: 169 ± 57 µM
HLA-B*2704; [3]
  EC50: 61 to 200 µM
HLA-B*2703; EC50, B*2703, SD
  EC50: 71 ± 28 µM
HLA-B*2703; [4]
  EC50: 61 to 200 µM
HLA-B*2705
  relative MHC class I affinity according to the EC50 value, in words (high, medium, low): medium
HLA-B*2705; EC50, B*2705, SD
  EC50: 32 ± 6 µM
HLA-B*2705; [9]
  EC50: 20 to 60 µM
HLA-B*2702; EC50, B*2702
  EC50: > 200 µM
HLA-B*2702; [5]
  EC50: > 200 µM
HLA-B*2709; EC50, B*2709, SD
  EC50: 68 ± 24 µM
HLA-B*2709; [6]
  EC50: 61 to 200 µM
